According to US20050038058A1, “Novel compounds and methods for therapy” (Institute of Organic Chemistry and Biochemistry, priority 2001, published 2005):
Converted amounts (≈) assume the structure as drawn. Like-named read-outs stand apart in the source and are kept apart here.

Assays:
CEM cells = assay: Inhibition of CEM cell growth (cytostatic activity); assay type: cell-based
Protocol: (§1) Cytostatic and antimetabolic effect of acyclic nucleoside phosphonates in vitro. The assays to examine the inhibition of CEM cell growth by the test compounds have been described previously (Balzarini et al., AIDS 5:21-28, 1991). The 50% cytostatic concentration (CC50) was defined as the concentration of compound that reduced the number of living cells by 50% . To measure MT-4 cell toxicity of the test compounds, 5×10^4 MT-4 cells were incubated in the wells of 96-well microplates in the presence or absence of different concentrations of the test compounds for 5 days at 37° C. The CC50 was then calculated from the number of living cells counted under a microscope by the trypan blue exclusion method.

HIV-1(IIIB) [1] = assay: HIV-1(IIIB)-induced cytopathicity in CEM cell cultures; assay type: cell-based
Excerpt: (§2) Viruses. The origins of MSV, HIV type 1 (HIV-1) (strain IIIB and Ba-L), HIV-2 (strain ROD) and FIV (strain Petaluma) have been described previously (Balzarini et al., AIDS 5: 21-28, 1991; De Clercq et al., Proc. Soc. Exp. Biol. Med. 137:590-594, 1971; Egberink et al., Proc. Natl. Acad. Sci. 87:3087-3091, 1990; Hartmann et al., Antiviral Chem. Chemother. 5:13-19, 1994; Popovic et al., Science 224:497-500, 1984). HIV-1(IIIB) and HIV-2(ROD) stocks were obtained from supernatants of virus-infected MT-4 cell cultures. HIV-1BaL was expanded in human primary M/M, whose supernatants were collected, filtered and stored at −80° C. before use. Characteristics of viral stocks used for this study were 2.1×10^8 HIV-RNA genomes/ml (corresponding to 35 ng of p24 antigen) and 5,000 tissue culture infectious doses 50% per ml (TCID50/ml) as assessed by virus titration in other primary M/M cultures. The isolation and characterization of the clinical HIV-1 isolates L1S, L6S and L6S/PMEA has been reported (Thormar et al., Proc. Natl. Acad. Sci. USA 93:3283-3287, 1995; Van Laethem et al., AIDS 15:553-561, 2001). […] HIV-1/L6S/PMEA is the clinical isolate HIV-1/L6S that has been isolated after culturing the virus for 11 passages in the presence of increasing concentrations of PMEA (adefovir).
(§3) In vitro antiviral assays. The activity against HIV-1- and HIV-2-induced cytopathicity was examined in MT-4 cell cultures at day 5 post infection and based on the determination of cell viability by trypan blue dye staining or in CEM cell cultures at day 4 to 5 post infection and based on the microscopical examination of virus-induced giant cell formation. HIV-1 and HIV-2 were added at 100 CCID50 to the cell cultures.

[2] = Inhibition of CEM cell growth (cytostatic activity); assay type: cell-based; settings: human, CEM cells
Protocol: as §1

HIV-2(ROD) [3] = assay: HIV-2(ROD)-induced cytopathicity in CEM cell cultures; assay type: cell-based; settings: Human immunodeficiency virus 2, CCRF-CEM, read-out: EC50 HIV-2 (ROD) (CEM)
Excerpt: as §2, §3

[4] = Alteration of C3H cell morphology (minimal inhibitory concentration); assay type: cell-based, murine; settings: mouse, C3H/3T3 embryo fibroblast cells; microscopically visible alteration of cell morphology; > means no visible toxicity at the indicated concentration; read-out: CC50 C3H (minimal inhibitory concentration)
HIV-2(ROD) [5] = assay: HIV-2(ROD)-induced cytopathicity in MT-4 cell cultures; assay type: cell-based; settings: Human immunodeficiency virus 2, MT4, read-out: EC50 HIV-2 (ROD) (MT-4)
Excerpt: as §2, §3

[6] = MT-4 cell toxicity (trypan blue exclusion); assay type: cell-based; settings: human, MT-4 cells; reduction of cell viability; Table 2
Protocol: as §1

MSV [7] = assay: MSV-induced transformation of murine embryo fibroblast C3H/3T3 cell cultures; assay type: cell-based; settings: Mus musculus
Protocol: The inhibitory effect of the test compounds on MSV-induced transformation of murine embryo fibroblast C3H/3T3 cell cultures was examined microscopically at day 6 post infection. MSV was added at 75 focus-forming units to the cell cultures. The detailed procedures for the antiretroviral evaluations has been described in detail before (Balzarini et al., AIDS 5:21-28, 1991; Balzarini et al., Antimicrob. Agents Chemother. 37:332-338, 1993; De Clercq et al., Proc. Soc. Exp. Biol. Med. 137:590-594, 1971).

HIV-1(IIIB) [8] = assay: HIV-1(IIIB)-induced cytopathicity in MT-4 cell cultures; assay type: cell-based; settings: Human immunodeficiency virus 1, IIIB, MT4; Table 2
Excerpt: as §2, §3

HSV-1 TK- VMW 1837 = assay: Antiviral activity, HSV-1 TK- VMW 1837, Table 1a; assay type: cell-based
VZV TK − YS/R = assay: Antiviral activity, VZV TK- YS/R, Table 1a; assay type: cell-based
VZV TK + YS = assay: Antiviral activity, VZV TK+ YS, Table 1a; assay type: cell-based
HSV-2 (G) = assay: Antiviral activity, HSV-2 (G), Table 1a; assay type: cell-based
HIV-2 = assay: Antiviral activity, HIV-2, Table 1a; assay type: cell-based
HSV-1 (KOS) = assay: Antiviral activity, HSV-1 (KOS), Table 1a; assay type: cell-based
CMV AD-169 = assay: Antiviral activity, CMV AD-169, Table 1a; assay type: cell-based
CMV Davis = assay: Antiviral activity, CMV Davis, Table 1a; assay type: cell-based
VZV TK − 07/1 = assay: Antiviral activity, VZV TK- 07/1, Table 1a; assay type: cell-based
VZV TK + OKA = assay: Antiviral activity, VZV TK+ OKA, Table 1a; assay type: cell-based
MSV [9] = assay: Antiviral activity, MSV, Table 1a; assay type: cell-based

Nc1nc(N)c(Br)c(OCCOCP(=O)(O)O)n1 [5-bromo-derivative of 1, 2,4-Diamino-5-bromo-6-[2-(phosphonomethoxy)ethoxy]pyrimidine]
Cytotoxicity at 100 μg/mL (CEM cells; 100 μg/mL): not toxic
melting point: 218 °C
Concentration at which active against HIV-1 in CEM cell cultures (HIV-1(IIIB) [1]): 2.5 µg/mL

Nc1nc(O)cc(OCCOCP(=O)(O)O)n1 [Compound 4, 2-amino-4-hydroxy-6-[2-(phosphonomethoxy)ethoxy]pyrimidine]
CC50 ([2]; 50% cytostatic concentration, CEM cell proliferation, Table 1, read-out: CC50 (CEM)): 2.5 µg/mL (≈ 9.43 µM)
CC50 ([2]; inhibition of cell proliferation, Table 2, read-out: CC50 CEM): 2.5 ± 0.2 µg/mL (≈ 9.43 µM)
CC50 ([2]; read-out: CC50 for CEM cells): 2.5 µg/mL (≈ 9.43 µM)
EC50 (HIV-2(ROD) [3]): 1.4 ± 1.2 µg/mL (≈ 5.28 µM)
Minimal concentration causing visible cell morphology alteration [4]: ≥ 16 µg/mL
EC50 (HIV-2(ROD) [5]): 2.1 µg/mL (≈ 7.92 µM)
CC50 at 5 days [6]: 10 ± 2.2 µg/mL (≈ 37.7 µM)
EC50 (HIV-1(IIIB) [1]; Human immunodeficiency virus 1, CCRF-CEM, HIV-1 (IIIB) in CEM, no addition, Table 3, read-out: EC50 as such): 1.4 ± 0.71 µg/mL (≈ 5.28 µM)
EC50 (HIV-1(IIIB) [1]; Human immunodeficiency virus 1, CCRF-CEM, HIV-1 (IIIB) in CEM, Ade 100 μM, read-out: EC50 upon addition of Ade (100 μM)): 1.7 ± 1.2 µg/mL (≈ 6.41 µM)
EC50 (HIV-1(IIIB) [1]; Human immunodeficiency virus 1, CCRF-CEM, HIV-1 (IIIB) in CEM, Ado 400 μM, read-out: EC50 upon addition of Ado (400 μM)): 1.4 ± 0.93 µg/mL (≈ 5.28 µM)
EC50 (HIV-1(IIIB) [1]; Human immunodeficiency virus 1, CCRF-CEM, HIV-1 (IIIB) in CEM, Guo 10 μM, read-out: EC50 upon addition of Guo (10 μM)): 1.9 ± 0.92 µg/mL (≈ 7.17 µM)
EC50 (HIV-1(IIIB) [1]; Human immunodeficiency virus 1, CCRF-CEM, HIV-1 (IIIB) in CEM, dCyd 1 mM, read-out: EC50 upon addition of dCyd (1 mM)): 2.4 ± 1.9 µg/mL (≈ 9.05 µM)
EC50 (HIV-1(IIIB) [1]; Human immunodeficiency virus 1, CCRF-CEM, HIV-1 (IIIB) in CEM, dThd 10 μM, read-out: EC50 upon addition of dThd (10 μM)): 1 ± 0.3 µg/mL (≈ 3.77 µM)
EC50 (HIV-1(IIIB) [1]; Human immunodeficiency virus 1, CCRF-CEM, HIV-1(IIIB)-induced cytopathicity in CEM cell cultures, Table 1, read-out: EC50 HIV-1 (CEM)): 2.2 µg/mL (≈ 8.3 µM)
EC50 (HIV-1(IIIB) [1]; Human immunodeficiency virus 1, IIIB, CCRF-CEM, giant cell formation, mean ±SD of 2 to 4 experiments, Table 2, read-out: EC50 HIV-1 (IIIB) (CEM)): 1.4 ± 0.7 µg/mL (≈ 5.28 µM)
EC50 (MSV [7]; C3H, read-out: EC50 against MSV-induced C3H cell transformation): 0.05 to 0.15 µg/mL (≈ 0.189 to 0.566 µM)
EC50 (MSV [7]; MSV-induced C3H cell transformation, Table 2, read-out: EC50 MSV (C3H)): 0.08 ± 0.03 µg/mL (≈ 0.302 µM)
EC50 (HIV-1(IIIB) [8]): 1.9 ± 0.4 µg/mL (≈ 7.17 µM)

C[C@@H](COc1cc(N)nc(N)n1)OCP(=O)(O)O [Compound 10, 2,4-diamino-6-(S)-[2-(phosphonome-thoxy)propoxy]pyrimidine]
CC50 (CEM) (CEM cells; 50% cytostatic concentration, CEM cell proliferation, Table 1): >100 µg/mL
Antiviral Activity EC50 HSV-1 TK- VMW 1837 (HSV-1 TK- VMW 1837): >80 µg/mL
Antiviral Activity EC50 VZV TK − YS/R (VZV TK − YS/R): >50 µg/mL
Antiviral Activity EC50 VZV TK + YS (VZV TK + YS): >50 µg/mL
Antiviral Activity EC50 HSV-2 (G) (HSV-2 (G)): >80 µg/mL
Antiviral Activity EC50 HIV-1 (HIV-1): 51 µg/mL
Antiviral Activity EC50 HIV-2 (HIV-2): 33 µg/mL
Antiviral Activity EC50 HSV-1 (KOS) (HSV-1 (KOS)): >80 µg/mL
EC50 HIV-1 (CEM) (HIV-1(IIIB) [1]; HIV-1(IIIB)-induced cytopathicity in CEM cell cultures, Table 1): 51 µg/mL (≈ 183 µM)
Antiviral Activity EC50 CMV AD-169 (CMV AD-169): >50 µg/mL
Antiviral Activity EC50 CMV Davis (CMV Davis): >50 µg/mL
Antiviral Activity EC50 VZV TK − 07/1 (VZV TK − 07/1): >50 µg/mL
Antiviral Activity EC50 VZV TK + OKA (VZV TK + OKA): >50 µg/mL
Antiviral Activity EC50 MSV (MSV [9]): 6.1 µg/mL

Nc1nc(OCCOCP(=O)(O)O)cc(OCCOCP(=O)(O)O)n1 [Example 10, 2-Amino-4,6-bis[2-(phosphonomethoxy)ethoxy]pyrimidine]
melting point: 108 °C
